Data reported in ChEMBL document CHEMBL3745677, “Discovery of 6-(4-{[5-Cyclopropyl-3-(2,6-dichlorophenyl)isoxazol-4-yl]methoxy}piperidin-1-yl)-1-methyl-1H-indole-3-carboxylic Acid: A Novel FXR Agonist for the Treatment of Dyslipidemia” (J Med Chem, 2015).

Assays:
Assay type in all cases: functional, Zucker
Rattus norvegicus [1] = experiment: Antidyslipidemic activity in ZDF rat assessed as HDL level at 0.3 mg/kg for 9 days by FPLC analysis (reference value: 48.3 mg/dL)
Rattus norvegicus [2] = experiment: Antidyslipidemic activity in ZDF rat assessed as LDL/IgHDL level at 0.3 mg/kg for 9 days by FPLC analysis (reference value: 17.8 mg/dL)
Rattus norvegicus [3] = experiment: Antidyslipidemic activity in ZDF rat assessed as VLDL level at 0.3 mg/kg for 9 days by FPLC analysis (reference value: 35 mg/dL)

SMILES: CN(CCOc1ccc(CC2SC(=O)NC2=O)cc1)c1ccccn1 (stereo not drawn) [ROSIGLITAZONE]
- Activity (Rattus norvegicus [1]): 61.3 mg/dL
- Activity (Rattus norvegicus [2]): 19 mg/dL
- Activity (Rattus norvegicus [3]): 26.3 mg/dL
